Reference: ChEMBL document CHEMBL2380193, “New trifluoromethyl quinolone derivatives: synthesis and investigation of antimicrobial properties” (2013)
≈ marks a conversion by molar mass, not a printed value.

How the values were obtained:
Salmonella typhi [1] = test: Antibacterial activity against Salmonella typhi MTCC 733 after 14 hrs by serial dilution method; type: functional, Salmonella enterica subsp. enterica serovar Typhi; settings: Salmonella enterica, MTCC 733, 14 h
Escherichia coli [2] = test: Antibacterial activity against Escherichia coli MTCC 443 after 14 hrs by serial dilution method; type: functional; settings: MTCC 443, 14 h
Bacillus subtilis [3] = test: Antibacterial activity against Bacillus subtilis MTCC 441 after 14 hrs by serial dilution method; type: functional; settings: MTCC 441, 14 h
Escherichia coli [4] = test: Antibacterial activity against Escherichia coli MTCC 443 assessed as zone of inhibition at 100 ug/ml after 14 hrs by cup plate method; type: functional; settings: MTCC 443, 14 h, read-out: IZ
Candida albicans [5] = test: Antifungal activity against Candida albicans MTCC 227 after 30 hrs by serial dilution method; type: functional; settings: MTCC 227, 30 h
Aspergillus flavus [6] = test: Antifungal activity against Aspergillus flavus MTCC 277 assessed as zone of inhibition at 100 ug/ml after 30 hrs by cup plate method; type: functional; settings: MTCC 277, 30 h, read-out: IZ
Staphylococcus aureus [7] = test: Antibacterial activity against Staphylococcus aureus MTCC 096 after 14 hrs by serial dilution method; type: functional; settings: MTCC 096, 14 h
Aspergillus fumigatus [8] = test: Antifungal activity against Aspergillus fumigatus MTCC 343 assessed as zone of inhibition at 100 ug/ml after 30 hrs by cup plate method; type: functional; settings: MTCC 343, 30 h, read-out: IZ
Aspergillus flavus [9] = test: Antifungal activity against Aspergillus flavus MTCC 277 after 30 hrs by serial dilution method; type: functional; settings: MTCC 277, 30 h
Klebsiella pneumoniae [10] = test: Antibacterial activity against Klebsiella pneumoniae MTCC 432 assessed as zone of inhibition at 100 ug/ml after 14 hrs by cup plate method; type: functional; settings: MTCC 432, 14 h, read-out: IZ
Staphylococcus aureus [11] = test: Antibacterial activity against Staphylococcus aureus MTCC 096 assessed as zone of inhibition at 100 ug/ml after 14 hrs by cup plate method; type: functional; settings: MTCC 096, 14 h, read-out: IZ
Bacillus subtilis [12] = test: Antibacterial activity against Bacillus subtilis MTCC 441 assessed as zone of inhibition at 100 ug/ml after 14 hrs by cup plate method; type: functional; settings: MTCC 441, 14 h, read-out: IZ
Aspergillus niger [13] = test: Antifungal activity against Aspergillus niger MTCC 282 assessed as zone of inhibition at 100 ug/ml after 30 hrs by cup plate method; type: functional; settings: MTCC 282, 30 h, read-out: IZ
Salmonella typhi [14] = test: Antibacterial activity against Salmonella typhi MTCC 733 assessed as zone of inhibition at 100 ug/ml after 14 hrs by cup plate method; type: functional, Salmonella enterica subsp. enterica serovar Typhi; settings: Salmonella enterica, MTCC 733, 14 h; read-out: IZ
Klebsiella pneumoniae [15] = test: Antibacterial activity against Klebsiella pneumoniae MTCC 432 after 14 hrs by serial dilution method; type: functional; settings: MTCC 432, 14 h
Aspergillus niger [16] = test: Antifungal activity against Aspergillus niger MTCC 282 after 30 hrs by serial dilution method; type: functional; settings: MTCC 282, 30 h
Candida albicans [17] = test: Antifungal activity against Candida albicans MTCC 227 assessed as zone of inhibition at 100 ug/ml after 30 hrs by cup plate method; type: functional; settings: MTCC 227, 30 h, read-out: IZ
Aspergillus fumigatus [18] = test: Antifungal activity against Aspergillus fumigatus MTCC 343 after 30 hrs by serial dilution method; type: functional; settings: MTCC 343, 30 h

Compound | MIC (Salmonella typhi [1]) | MIC (Escherichia coli [2]) | MIC (Bacillus subtilis [3]) | zone of inhibition at 100 µg/mL (Escherichia coli [4]) | MIC (Candida albicans [5]) | zone of inhibition at 100 µg/mL (Aspergillus flavus [6]) | MIC (Staphylococcus aureus [7]) | zone of inhibition at 100 µg/mL (Aspergillus fumigatus [8]) | MIC (Aspergillus flavus [9]) | zone of inhibition at 100 µg/mL (Klebsiella pneumoniae [10]) | zone of inhibition at 100 µg/mL (Staphylococcus aureus [11]) | zone of inhibition at 100 µg/mL (Bacillus subtilis [12]) | zone of inhibition at 100 µg/mL (Aspergillus niger [13]) | zone of inhibition at 100 µg/mL (Salmonella typhi [14]) | MIC (Klebsiella pneumoniae [15]) | MIC (Aspergillus niger [16]) | zone of inhibition at 100 µg/mL (Candida albicans [17]) | MIC (Aspergillus fumigatus [18])
O=C1c2ccccc2C(=O)N1CCCCn1c(C(F)(F)F)cc(=O)c2ccccc21 | 25 µg/mL (≈ 60.3 µM) | 50 µg/mL (≈ 121 µM) | 12.5 µg/mL (≈ 30.2 µM) | < 10 mm | 6.25 µg/mL (≈ 15.1 µM) | < 10 mm | 12.5 µg/mL (≈ 30.2 µM) | < 10 mm | 25 µg/mL (≈ 60.3 µM) | 13 mm | 13 mm | 12 mm | 13 mm | < 10 mm | 12.5 µg/mL (≈ 30.2 µM) | 12.5 µg/mL (≈ 30.2 µM) | 17 mm | 25 µg/mL (≈ 60.3 µM)
O=C1c2ccccc2C(=O)N1CCCCn1c(C(F)(F)F)cc(=O)c2cc(F)ccc21 | 12.5 µg/mL (≈ 28.9 µM) | 50 µg/mL (≈ 116 µM) | 12.5 µg/mL (≈ 28.9 µM) | < 10 mm | 6.25 µg/mL (≈ 14.5 µM) | < 10 mm | 6.25 µg/mL (≈ 14.5 µM) | 12 mm | 25 µg/mL (≈ 57.8 µM) | 13 mm | 15 mm | 13 mm | 17 mm | 13 mm | 12.5 µg/mL (≈ 28.9 µM) | 6.25 µg/mL (≈ 14.5 µM) | 17 mm | 12.5 µg/mL (≈ 28.9 µM)
CN1CCN(C/C=C/Cn2c(C(F)(F)F)cc(=O)c3cc(F)ccc32)CC1 | 12.5 µg/mL (≈ 32.6 µM) | 50 µg/mL (≈ 130 µM) | 6.25 µg/mL (≈ 16.3 µM) | < 10 mm | 6.25 µg/mL (≈ 16.3 µM) | 12 mm | 6.25 µg/mL (≈ 16.3 µM) | 12 mm | 12.5 µg/mL (≈ 32.6 µM) | 12 mm | 15 mm | 14 mm | 12 mm | 12 mm | 12.5 µg/mL (≈ 32.6 µM) | 12.5 µg/mL (≈ 32.6 µM) | 15 mm | 12.5 µg/mL (≈ 32.6 µM)
O=C1c2ccccc2C(=O)N1CCCCOc1cc(C(F)(F)F)nc2ccccc12 | 25 µg/mL (≈ 60.3 µM) | 50 µg/mL (≈ 121 µM) | 6.25 µg/mL (≈ 15.1 µM) | < 10 mm | 6.25 µg/mL (≈ 15.1 µM) | < 10 mm | 6.25 µg/mL (≈ 15.1 µM) | 12 mm | 25 µg/mL (≈ 60.3 µM) | 12 mm | 16 mm | 16 mm | 17 mm | < 10 mm | 12.5 µg/mL (≈ 30.2 µM) | 6.25 µg/mL (≈ 15.1 µM) | 17 mm | 12.5 µg/mL (≈ 30.2 µM)
O=c1cc(C(F)(F)F)n(C/C=C/CN2CCCCC2)c2ccc(F)cc12 | 25 µg/mL (≈ 67.9 µM) | 50 µg/mL (≈ 136 µM) | 12.5 µg/mL (≈ 33.9 µM) | < 10 mm | 12.5 µg/mL (≈ 33.9 µM) | < 10 mm | 12.5 µg/mL (≈ 33.9 µM) | < 10 mm | 25 µg/mL (≈ 67.9 µM) | 12 mm | 13 mm | 12 mm | 17 mm | < 10 mm | 12.5 µg/mL (≈ 33.9 µM) | 6.25 µg/mL (≈ 17 µM) | 12 mm | 25 µg/mL (≈ 67.9 µM)
O=c1cc(C(F)(F)F)n(CCCCN2CCCCC2)c2ccc(F)cc12 | 50 µg/mL (≈ 135 µM) | 50 µg/mL (≈ 135 µM) | 25 µg/mL (≈ 67.5 µM) | < 10 mm | 6.25 µg/mL (≈ 16.9 µM) | 12 mm | 12.5 µg/mL (≈ 33.7 µM) | < 10 mm | 12.5 µg/mL (≈ 33.7 µM) | 12 mm | 12 mm | < 10 mm | 12 mm | < 10 mm | 12.5 µg/mL (≈ 33.7 µM) | 12.5 µg/mL (≈ 33.7 µM) | 15 mm | 25 µg/mL (≈ 67.5 µM)
COc1ccc2c(c1)c(=O)cc(C(F)(F)F)n2CCCCN1C(=O)c2ccccc2C1=O | 25 µg/mL (≈ 56.3 µM) | 50 µg/mL (≈ 113 µM) | 12.5 µg/mL (≈ 28.1 µM) | < 10 mm | 6.25 µg/mL (≈ 14.1 µM) | < 10 mm | 6.25 µg/mL (≈ 14.1 µM) | < 10 mm | 25 µg/mL (≈ 56.3 µM) | 16 mm | 16 mm | 13 mm | 12 mm | < 10 mm | 6.25 µg/mL (≈ 14.1 µM) | 12.5 µg/mL (≈ 28.1 µM) | 15 mm | 25 µg/mL (≈ 56.3 µM)
O=C(O)c1cn(C2CC2)c2cc(N3CCNCC3)c(F)cc2c1=O [CIPROFLOXACIN] | – | – | 6.25 µg/mL (≈ 18.9 µM) | 18 mm | – | – | – | – | – | 18 mm | 17 mm | 18 mm | – | 14 mm | 6.25 µg/mL (≈ 18.9 µM) | – | – | –
O=C1c2ccccc2C(=O)N1CCCCOc1cc(C(F)(F)F)nc2ccc(F)cc12 | 12.5 µg/mL (≈ 28.9 µM) | 25 µg/mL (≈ 57.8 µM) | 6.25 µg/mL (≈ 14.5 µM) | < 10 mm | 6.25 µg/mL (≈ 14.5 µM) | 12 mm | 6.25 µg/mL (≈ 14.5 µM) | 12 mm | 12.5 µg/mL (≈ 28.9 µM) | 12 mm | 15 mm | 15 mm | 17 mm | 12 mm | 12.5 µg/mL (≈ 28.9 µM) | 6.25 µg/mL (≈ 14.5 µM) | 15 mm | 12.5 µg/mL (≈ 28.9 µM)
Clc1ccc(COC(Cn2ccnc2)c2ccc(Cl)cc2Cl)c(Cl)c1 (stereo unspecified) [MICONAZOLE] | – | – | – | – | 6.25 µg/mL (≈ 15 µM) | 17 mm | – | 14 mm | 6.25 µg/mL (≈ 15 µM) | – | – | – | 17 mm | – | – | 6.25 µg/mL (≈ 15 µM) | 17 mm | 12.5 µg/mL (≈ 30 µM)
Cc1ccc2c(c1)c(=O)cc(C(F)(F)F)n2CCCCN1C(=O)c2ccccc2C1=O | 12.5 µg/mL (≈ 29.2 µM) | 25 µg/mL (≈ 58.4 µM) | 6.25 µg/mL (≈ 14.6 µM) | < 10 mm | 6.25 µg/mL (≈ 14.6 µM) | 12 mm | 6.25 µg/mL (≈ 14.6 µM) | < 10 mm | 12.5 µg/mL (≈ 29.2 µM) | 13 mm | 15 mm | 15 mm | 12 mm | 13 mm | 12.5 µg/mL (≈ 29.2 µM) | 12.5 µg/mL (≈ 29.2 µM) | 15 mm | 25 µg/mL (≈ 58.4 µM)
O=c1cc(C(F)(F)F)n(CCCCN2CCCC2)c2ccc(F)cc12 | 12.5 µg/mL (≈ 35.1 µM) | 50 µg/mL (≈ 140 µM) | 6.25 µg/mL (≈ 17.5 µM) | < 10 mm | 6.25 µg/mL (≈ 17.5 µM) | 12 mm | 6.25 µg/mL (≈ 17.5 µM) | 12 mm | 12.5 µg/mL (≈ 35.1 µM) | 13 mm | 14 mm | 15 mm | 12 mm | 12 mm | 12.5 µg/mL (≈ 35.1 µM) | 12.5 µg/mL (≈ 35.1 µM) | 16 mm | 12.5 µg/mL (≈ 35.1 µM)
Cc1ccc2nc(C(F)(F)F)cc(OCCCCN3C(=O)c4ccccc4C3=O)c2c1 | 12.5 µg/mL (≈ 29.2 µM) | 50 µg/mL (≈ 117 µM) | 6.25 µg/mL (≈ 14.6 µM) | < 10 mm | 6.25 µg/mL (≈ 14.6 µM) | < 10 mm | 6.25 µg/mL (≈ 14.6 µM) | 12 mm | 50 µg/mL (≈ 117 µM) | 15 mm | 15 mm | 15 mm | 17 mm | 12 mm | 6.25 µg/mL (≈ 14.6 µM) | 6.25 µg/mL (≈ 14.6 µM) | 15 mm | 12.5 µg/mL (≈ 29.2 µM)
O=c1cc(C(F)(F)F)n(CCCCN2CCOCC2)c2ccc(F)cc12 | 25 µg/mL (≈ 67.1 µM) | 50 µg/mL (≈ 134 µM) | 12.5 µg/mL (≈ 33.6 µM) | < 10 mm | 6.25 µg/mL (≈ 16.8 µM) | < 10 mm | 6.25 µg/mL (≈ 16.8 µM) | < 10 mm | 25 µg/mL (≈ 67.1 µM) | < 10 mm | 15 mm | 13 mm | 13 mm | < 10 mm | 25 µg/mL (≈ 67.1 µM) | 12.5 µg/mL (≈ 33.6 µM) | 15 mm | 25 µg/mL (≈ 67.1 µM)
